Here are results for one compound from patent publication US12403106B2, “Prophylactic skin treatment for radiation therapy” (THE BOARD OF TRUSTEES OF THE LELAND STANFORD JUNIOR …, priority 2019, dated 2025).

The structures appear in SMILES notation.

The subject of one assay is irradiated scalp. Briefly: Laser Doppler analysis of perfusion of irradiated scalp, DFO injection (Example 1). The assay is classed as in vivo, mice. To be noted: mean±SE. As for the experimental part:
(§1) Adult 60-day-old male Cr1:NU-Fox1NU immunocompromised mice were used for experiments in this study. Twelve mice were treated with a total of 30 Gy external beam radiation, delivered as six fractionated doses of 5 Gy each over 12 days, followed by 5 weeks of recovery. An additional six non-irradiated mice were used as healthy controls for laser Doppler analysis (LDA) and skin analysis. Irradiated mice were divided into two treatment groups: a DFO experimental group and saline control group. Following recovery, mice underwent injection of either DFO (1 mg in 100 μl saline) or 100 μl of saline alone beneath the dermis every other day for a total of seven treatments.
Laser Doppler Analysis (“LDA”) was performed to measure perfusion at the irradiated site using a Perimed PIM 3 laser Doppler perfusion imager (Datavagen, Sweden). The signal generated by the LDA, laser Doppler perfusion index (LDPI), was used for comparative purposes. LDPI is a product of the blood cell velocity and concentration and is represented by a color spectrum, with black/dark blue representing low perfusion and red representing high perfusion. LDA was performed prior to irradiation, following completion of irradiation and recovery, and then twenty-four hours following each treatment with DFO or saline. […]
Five images were taken of each mouse, and the average LDPI of the five images was recorded. […]

Another assay deals with fat grafts. Briefly: Fat graft volume retention by micro-CT in DFO preconditioned irradiated scalp (Example 1). The format is in vivo. To be noted: DFO preconditioned irradiated mice, mean±SE. As for the experimental part:
as §1
After irradiation, fat grafting was performed on the irradiated mice. After informed consent was obtained, lipoaspirate was obtained from three healthy donors, with no other medical co-morbidities under an approved IRB protocol #2188.
Lipoaspirate was allowed to settle for 15 minutes for layers to separate by gravity sedimentation, and then oil and blood layers were removed by vacuum aspiration. The remaining fat layer was centrifuged at 1300 ref for 3 minutes at 4° C. Any remaining oil and blood was again removed and the remaining fat was transferred into lee syringes for injection through a 14-gauge needle. Fat grafting was performed beneath the scalp by creating a subcutaneous tunnel with the needle and then injecting […] of lipoaspirate in retrograde fashion while pulling the needle out.
Mice were also imaged using a MicroCAT-11 in vivo X-Ray micro-CT scanner (Imtek, Inc.; Knoxville, Tenn.) two days after fat graft injection for baseline volume measurements. Fat graft volume retention was then analyzed every two weeks over a total of 8 weeks using microcomputed tomography, and images were reconstructed as three-dimensional surfaces through cubic-spline interpolation. All reconstructions were performed by a single investigator to avoid inter-observer variability.

With `CC(=O)N(O)CCCCCNC(=O)CCC(=O)N(O)CCCCCNC(=O)CCC(=O)N(O)CCCCCN` [DFO, deferoxamine], the “laser Doppler perfusion index at the scalp” value in the assay with irradiated scalp (30 Gy irradiated scalp, 1 mg DFO injected beneath the dermis every other day, after four treatments) came to 205.08±2.30 LDPI. Moreover, the “laser Doppler perfusion index following fat grafting” value with irradiated scalp (two weeks following injection of fat grafts, DFO preconditioned mice) was 86.33±2.00 LDPI. For the same compound, the “fat graft volume retention” value worked out at 89.24% in the assay with fat grafts (two weeks after fat grafting), 73.17% in the assay on fat grafts (week 6 after fat grafting) and 71.75% in the assay with fat grafts (week 8 after fat grafting).
